US20240092784A1, “CONDENSED HETEROCYCLIC COMPOUND” (NISSAN CHEMICAL CORPORATION, priority 2020, published 2024)

Molecular target: human SPR (Homo sapiens (Human), UniProt P35270)
Test: Evaluation Example 2: Measurement of human SPR inhibitory activity (seven concentrations, sepiapterin absorbance at 420 nm)
Assay type: biochemical
Conditions: Evaluation Example 2, seven concentrations 0.14 nM to 100 nM, 240 minutes at room temperature, read-out: IC50
Procedure, shortened: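 His-tagged full-length human SPR (1-261) was expressed in E. coli and the tag removed. Enzyme at 150 ng/mL in 100 mM Tris-HCl pH 7.5/0.01% BSA was mixed with compound (0.14–100 nM, seven points), 120 μM sepiapterin and 160 μM NADPH, both as added-solution concentrations. After 240 min at room temperature, remaining sepiapterin was read at 420 nm to give percent inhibition.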

human SPR, sequence (P35270 whole entry): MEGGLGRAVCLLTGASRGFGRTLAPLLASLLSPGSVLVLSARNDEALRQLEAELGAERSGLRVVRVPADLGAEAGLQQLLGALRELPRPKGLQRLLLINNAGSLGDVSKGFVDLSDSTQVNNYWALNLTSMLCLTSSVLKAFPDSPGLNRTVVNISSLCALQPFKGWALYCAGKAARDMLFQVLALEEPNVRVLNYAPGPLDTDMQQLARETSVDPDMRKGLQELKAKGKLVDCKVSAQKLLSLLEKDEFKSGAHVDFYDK

For Cc1nn2c(O)c(C(=O)NC3CC3)c(=O)n(CC(C)C)c2c1/C=C/C(=O)N(C)Cc1cnccn1 [Synthesis Example 636, (E)-N-Cyclopropyl-7-hydroxy-4-isobutyl-2-methyl-3-(3-(methyl(pyrazin-2-ylmethyl)amino)-3-oxoprop-1-en-1-yl)-5-oxo-4,5-dihydropyrazolo[1,5-a]pyrimidine-6-carboxamide], the IC50 was 1.47 nM.

Compound Cc1nn2c(O)c(C(=O)NC3CC3)c(=O)n(CC(C)C)c2c1/C=C/C(=O)N(C)Cc1cccnc1 [Synthesis Example 637, (E)-N-Cyclopropyl-7-hydroxy-4-isobutyl-2-methyl-3-(3-(methyl(pyridin-3-ylmethyl)amino)-3-oxoprop-1-en-1-yl)-5-oxo-4,5-dihydropyrazolo[1,5-a]pyrimidine-6-carboxamide] has an IC50 of 0.89 nM.

Cc1nn2c(O)c(C(=O)NC3CC3)c(=O)n(CC(C)C)c2c1/C=C/C(=O)N(C)Cc1ccccn1 [Synthesis Example 638, (E)-N-Cyclopropyl-7-hydroxy-4-isobutyl-2-methyl-3-(3-(methyl(pyridin-2-ylmethyl)amino)-3-oxoprop-1-en-1-yl)-5-oxo-4,5-dihydropyrazolo[1,5-a]pyrimidine-6-carboxamide] showed an IC50 of 1.05 nM.

In the case of Cc1nn2c(O)c(C(=O)NC3CC3)c(=O)n(CC(C)C)c2c1/C=C/C(=O)N(C)Cc1ccn(C)n1 [Synthesis Example 639, (E)-N-Cyclopropyl-7-hydroxy-4-isobutyl-2-methyl-3-(3-(methyl((1-methyl-1H-pyrazol-3-yl)methyl)amino)-3-oxoprop-1-en-1-yl)-5-oxo-4,5-dihydropyrazolo[1,5-a]pyrimidine-6-carboxamide], the IC50 is reported as 1.06 nM.

CC[C@H]1CCCN1C(=O)/C=C/c1c(C)nn2c(O)c(C(=O)NC3CC3)c(=O)n(CC(C)C)c12 [Synthesis Example 640, (S,E)-N-Cyclopropyl-3-(3-(2-ethylpyrrolidin-1-yl)-3-oxoprop-1-en-1-yl)-7-hydroxy-4-isobutyl-2-methyl-5-oxo-4,5-dihydropyrazolo[1,5-a]pyrimidine-6-carboxamide] was tested, and the IC50 was 1.16 nM.

For Cc1nn2c(O)c(C(=O)NC3CC3)c(=O)n(CC(C)C)c2c1/C=C/C(=O)N1[C@H](C)COC[C@@H]1C [Synthesis Example 641, N-Cyclopropyl-3-((E)-3-(cis-3,5-dimethylmorpholino)-3-oxoprop-1-en-1-yl)-7-hydroxy-4-isobutyl-2-methyl-5-oxo-4,5-dihydropyrazolo[1,5-a]pyrimidine-6-carboxamide], the IC50 was 0.89 nM.

Cc1nn2c(O)c(C(=O)NC3CC3)c(=O)n(CC(C)C)c2c1/C=C/C(=O)N1CCOC[C@H]1c1ccccc1 [Synthesis Example 642, (R,E)-N-Cyclopropyl-7-hydroxy-4-isobutyl-2-methyl-5-oxo-3-(3-oxo-3-(3-phenylmorpholino)prop-1-en-1-yl)-4,5-dihydropyrazolo[1,5-a]pyrimidine-6-carboxamide] showed an IC50 of 0.94 nM.

Cc1nn2c(O)c(C(=O)NC3CC3)c(=O)n(CC(C)C)c2c1/C=C/C(=O)N1CCOC[C@@H]1c1ccccc1 [Synthesis Example 643, (S,E)-N-Cyclopropyl-7-hydroxy-4-isobutyl-2-methyl-5-oxo-3-(3-oxo-3-(3-phenylmorpholino)prop-1-en-1-yl)-4,5-dihydropyrazolo[1,5-a]pyrimidine-6-carboxamide] was tested, and the IC50 was 1.37 nM.

Cc1nn2c(O)c(C(=O)NC3CC3)c(=O)n(CC(C)C)c2c1/C=C/C(=O)N1C[C@@H](C)OC[C@H]1C [Synthesis Example 644, N-Cyclopropyl-3-((E)-3-((2R,5R)-2,5-dimethylmorpholino)-3-oxoprop-1-en-1-yl)-7-hydroxy-4-isobutyl-2-methyl-5-oxo-4,5-dihydropyrazolo[1,5-a]pyrimidine-6-carboxamide] was tested, and the IC50 was 0.91 nM.

With Cc1nn2c(O)c(C(=O)NC3CC3)c(=O)n(CC(C)C)c2c1/C=C/C(=O)N1C[C@H](C)OC[C@@H]1C [Synthesis Example 645, N-Cyclopropyl-3-((E)-3-((2S,5S)-2,5-dimethylmorpholino)-3-oxoprop-1-en-1-yl)-7-hydroxy-4-isobutyl-2-methyl-5-oxo-4,5-dihydropyrazolo[1,5-a]pyrimidine-6-carboxamide] the IC50 was 0.8 nM.

Work on Cc1nn2c(O)c(C(=O)NC3CC3)c(=O)n(CC(C)C)c2c1/C=C/C(=O)N1C[C@H](C)OC[C@H]1C [Synthesis Example 646, N-Cyclopropyl-3-((E)-3-((2S,5R)-2,5-dimethylmorpholino)-3-oxoprop-1-en-1-yl)-7-hydroxy-4-isobutyl-2-methyl-5-oxo-4,5-dihydropyrazolo[1,5-a]pyrimidine-6-carboxamide] yielded an IC50 of 0.87 nM.

Cc1nn2c(O)c(C(=O)NC3CC3)c(=O)n(CC(C)C)c2c1/C=C/C(=O)N1C[C@@H](C)OC[C@@H]1C [Synthesis Example 647, N-Cyclopropyl-3-((E)-3-((2R,5S)-2,5-dimethylmorpholino)-3-oxoprop-1-en-1-yl)-7-hydroxy-4-isobutyl-2-methyl-5-oxo-4,5-dihydropyrazolo[1,5-a]pyrimidine-6-carboxamide] gave an IC50 of 0.81 nM.

Cc1nn2c(O)c(C(=O)NC3CC3)c(=O)n(CC(C)C)c2c1/C=C/C(=O)N1C[C@@H](F)[C@@H](F)C1 [Synthesis Example 648, N-Cyclopropyl-3-((E)-3-(cis-3,4-difluoropyrrolidin-1-yl)-3-oxoprop-1-en-1-yl)-7-hydroxy-4-isobutyl-2-methyl-5-oxo-4,5-dihydropyrazolo[1,5-a]pyrimidine-6-carboxamide] was tested, and the IC50 was 0.74 nM.

Cc1nn2c(O)c(C(=O)NC3CC3)c(=O)n(CC(C)C)c2c1/C=C/C(=O)N1C2CCC1CC(F)(F)C2 [Synthesis Example 650, (E)-N-Cyclopropyl-3-(3-(3,3-difluoro-8-azabicyclo[3.2.1]octan-8-yl)-3-oxoprop-1-en-1-yl)-7-hydroxy-4-isobutyl-2-methyl-5-oxo-4,5-dihydropyrazolo[1,5-a]pyrimidine-6-carboxamide] showed an IC50 of 0.95 nM.

Cc1nn2c(O)c(C(=O)NC3CC3)c(=O)n(CC(C)C)c2c1/C=C/C(=O)N1CC2CCC(C1)C2(F)F [Synthesis Example 651, (E)-N-Cyclopropyl-3-(3-(8,8-difluoro-3-azabicyclo[3.2.1]octan-3-yl)-3-oxoprop-1-en-1-yl)-7-hydroxy-4-isobutyl-2-methyl-5-oxo-4,5-dihydropyrazolo[1,5-a]pyrimidine-6-carboxamide] was tested, and the IC50 was 1.19 nM.

Compound Cc1nn2c(O)c(C(=O)NC3CC3)c(=O)n(CC(C)C)c2c1/C=C/C(=O)N1CCCC12CC2 [Synthesis Example 652, (E)-N-Cyclopropyl-7-hydroxy-4-isobutyl-2-methyl-5-oxo-3-(3-oxo-3-(4-azaspiro[2.4]heptan-4-yl)prop-1-en-1-yl)-4,5-dihydropyrazolo[1,5-a]pyrimidine-6-carboxamide] has an IC50 of 2.18 nM.

Compound CCc1nn2c(O)c(C(=O)NC3CC3)c(=O)n(CC(C)C)c2c1/C=C/C(=O)N1CCOC[C@@H]1C [Synthesis Example 653, (S,E)-N-Cyclopropyl-2-ethyl-7-hydroxy-4-isobutyl-3-(3-(3-methylmorpholino)-3-oxoprop-1-en-1-yl)-5-oxo-4,5-dihydropyrazolo[1,5-a]pyrimidine-6-carboxamide] has an IC50 of 0.74 nM.

CCc1nn2c(O)c(C(=O)NC3CC3)c(=O)n(CC(C)C)c2c1/C=C/C(=O)N1CCC[C@@H]1C(C)(C)O [Synthesis Example 654, (R,E)-N-Cyclopropyl-2-ethyl-7-hydroxy-3-(3-(2-(2-hydroxypropan-2-yl)pyrrolidin-1-yl)-3-oxoprop-1-en-1-yl)-4-isobutyl-5-oxo-4,5-dihydropyrazolo[1,5-a]pyrimidine-6-carboxamide] showed an IC50 of 0.95 nM.

Cc1nn2c(O)c(C(=O)NC3CC3)c(=O)n(CC(C)(C)C)c2c1/C=C/C(=O)N1CCC[C@@H]1C(C)(C)O [Synthesis Example 655, (R,E)-N-Cyclopropyl-7-hydroxy-3-(3-(2-(2-hydroxypropan-2-yl)pyrrolidin-1-yl)-3-oxoprop-1-en-1-yl)-2-methyl-4-neopentyl-5-oxo-4,5-dihydropyrazolo[1,5-a]pyrimidine-6-carboxamide] gave an IC50 of 1.05 nM.

Cc1nn2c(O)c(C(=O)NC3CC3)c(=O)n(CC(C)C)c2c1/C=C/C(=O)N1CCOCC1(C)C [Synthesis Example 656, (E)-N-Cyclopropyl-3-(3-(3,3-dimethylmorpholino)-3-oxoprop-1-en-1-yl)-7-hydroxy-4-isobutyl-2-methyl-5-oxo-4,5-dihydropyrazolo[1,5-a]pyrimidine-6-carboxamide] was tested, and the IC50 was 1.15 nM.

Compound Cc1nn2c(O)c(C(=O)NC3CC3)c(=O)n(CC(C)C)c2c1/C=C/C(=O)N1CCOC(C)(C)C1 [Synthesis Example 657, (E)-N-Cyclopropyl-3-(3-(2,2-dimethylmorpholino)-3-oxoprop-1-en-1-yl)-7-hydroxy-4-isobutyl-2-methyl-5-oxo-4,5-dihydropyrazolo[1,5-a]pyrimidine-6-carboxamide] has an IC50 of 0.92 nM.

In the case of Cc1nn2c(O)c(C(=O)NC3CC3)c(=O)n(CC(C)C)c2c1/C=C/C(=O)N1C2CCC1COC2 [Synthesis Example 658, (E)-3-(3-(3-Oxa-8-azabicyclo[3.2.1]octan-8-yl)-3-oxoprop-1-en-1-yl)-N-cyclopropyl-7-hydroxy-4-isobutyl-2-methyl-5-oxo-4,5-dihydropyrazolo[1,5-a]pyrimidine-6-carboxamide], the IC50 is reported as 0.78 nM.

CC[C@H]1COCCN1C(=O)/C=C/c1c(C)nn2c(O)c(C(=O)NC3CC3)c(=O)n(CC(C)C)c12 [Synthesis Example 659, (S,E)-N-Cyclopropyl-3-(3-(3-ethylmorpholino)-3-oxoprop-1-en-1-yl)-7-hydroxy-4-isobutyl-2-methyl-5-oxo-4,5-dihydropyrazolo[1,5-a]pyrimidine-6-carboxamide] showed an IC50 of 0.83 nM.
